Source: patent US20250387352A1 (SpringWorks Therapeutics, Inc., priority 2024, published 2025)

Experiments:
[1] = Metabolism and excretion of mirdametinib (radioactivity recovery); type: in vivo
[2] = Clinical pharmacokinetic parameters of mirdametinib (Table A); details: human, in vivo
[3] = tested on: NF1-associated plexiform neurofibromas (PNs); experiment: Phase 2b trial of mirdametinib in adult and pediatric patients with NF1-associated inoperable plexiform neurofibromas: efficacy by BICR volumetric MRI (REiNS); type: in vivo, human
Protocol: Study treatment was administered orally at a twice daily (BID) dose specified in the table below. Dosing was on a 28-day Cycle (4-week course) with a 3 week on/1 week off schedule. The treatment period will last for up to 24 Cycles followed by a 30-day Safety Follow-Up period.
A partial response was defined as PN decrease ≥20% compared to baseline using centrally read MRI volumetric analysis.
The major efficacy outcome measure was confirmed objective response rate (ORR), defined as the percentage of patients with complete response (disappearance of the target PN) or confirmed partial response (≥20% reduction in PN volume confirmed at a subsequent tumor assessment within 2-6 months during the 24-cycle treatment phase). Responses were assessed by blinded independent central review (BICR) using volumetric magnetic resonance imaging (MRI) analysis per Response Evaluation in Neurofibromatosis and Schwannomatosis (REINS) criteria. A secondary efficacy objective was to determine the duration of response for patients who achieved a confirmed objective response.

Excretion: Radioactivity ([1]; In feces): In feces: 27% | Excretion: Radioactivity ([1]; In urine): In urine: 68% | Excretion: Unchanged mirdametinib ([1]; In urine): In urine: 0.7% | Excretion: Unchanged mirdametinib ([1]; In urine and feces): In urine and feces: 9% | Time to steady-state [2]: Approximately 6 days
Compound: O=C(NOC[C@H](O)CO)c1ccc(F)c(F)c1Nc1ccc(I)cc1F (single isomer, unassigned) [mirdametinib]
median time to onset of response ([3]; adult cohort): 7.8 months | ORR also considering confirmed objective response after cycle 24 ([3]; adults): 45% | median time to onset of response ([3]; pediatric cohort): 7.9 months | ORR also considering confirmed objective response after cycle 24 ([3]; pediatric patients): 54%
